Laboratory results taken from US20260285846A1, “REV-ERB AGONISTS FOR TH17-MEDIATED INFLAMMATORY DISORDERS” (UNIVERSITY OF FLORID RESEARCH FOUNDATION, iNCORPORATED, priority 2021, published 2026).

biological target: REV-ERBα LBD (Homo sapiens, UniProt P20393, DEL324-422); assay: biochemical; conditions: FRET assay; 6xHistag-REV-ERBα LBD with FITC-labeled SMRT corepressor peptide; read-out: REVERBα (Agonism of REV-ERBα, EC50)
In short: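 Serially diluted ligands were incubated 2 h at 4° C, in triplicate, with E. coli-expressed His-REV-ERBα LBD (281-614 Δ324-422 or 381-579; 4 nM), Tb-anti-His (1 nM) and FITC-labelled SMRT peptide (400 nM). EC50 came from sigmoidal fits of the 520/495 nm TR-FRET ratio.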

Chain of REV-ERBα LBD (P20393 with tags, fused parts or gaps DEL324-422): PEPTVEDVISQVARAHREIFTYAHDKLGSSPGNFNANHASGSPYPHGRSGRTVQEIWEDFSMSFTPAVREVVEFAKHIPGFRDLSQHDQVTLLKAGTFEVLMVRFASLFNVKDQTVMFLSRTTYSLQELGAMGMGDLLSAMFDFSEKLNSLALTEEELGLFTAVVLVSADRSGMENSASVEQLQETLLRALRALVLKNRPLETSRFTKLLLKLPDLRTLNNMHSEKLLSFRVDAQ
Chain of REV-ERBα LBD (Q9Y618 2335-2356 partner limits assumed): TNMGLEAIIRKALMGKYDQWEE

Structure (SMILES) | EC50 [µM]
CC(C)(C)Cn1cc([C@H](NS(=O)(=O)C2CC2)C(F)F)c2cc(F)c(-c3cnccc3C(F)(F)F)cc21 [Compound 113, (S)—N-(2,2-difluoro-1-(5-fluoro-1-neopentyl-6-(4-(trifluoromethyl)pyridin-3-yl)-1H-indol-3-yl)ethyl)cyclopropanesulfonamide] | < 0.1
CC(C)(C)Cn1cc([C@H](NS(=O)(=O)C2CC2)C(F)(F)F)c2ccc(-c3ccccc3C#N)nc21 [Compound 1, (S)—N-(1-(6-(2-cyanophenyl)-1-neopentyl-1H-pyrrolo[2,3-b]pyridin-3-yl)-2,2,2-trifluoroethyl)cyclopropanesulfonamide] | 0.1 to 1
CC(C)(C)Cn1cc([C@H](NS(=O)(=O)C2CC2)C(F)F)c2ccc(-c3ccc(N)nc3C(F)(F)F)cc21 [Compound 167, (S)—N-(1-(6-(6-amino-2-(trifluoromethyl)pyridin-3-yl)-1-neopentyl-1H-indol-3-yl)-2,2-difluoroethyl)cyclopropanesulfonamide] | < 0.1
CC(NS(=O)(=O)C1CC1)c1cn(CC(C)(C)C)c2cc(-c3cnccc3Cl)c(F)cc12 (stereo not drawn) [Compound 73, N-[1-[6-(4-chloro-3-pyridyl)-1-(2,2-dimethylpropyl)-5-fluoro-indol-3-yl]ethyl]cyclopropanesulfonamide] | < 0.1
CC(C)(C)Cn1cc([C@H](NS(=O)(=O)C2CC2)C(F)F)c2cc(F)c(-c3c(F)cccc3C(F)F)cc21 [Compound 116, N-((1S)-1-(6-(2-(difluoromethyl)-6-fluorophenyl)-5-fluoro-1-neopentyl-1H-indol-3-yl)-2,2-difluoroethyl)cyclopropanesulfonamide] | < 0.1
CC(C)(C)Cn1cc([C@H](NS(=O)(=O)C2CC2)C(F)F)c2cc(F)c(-c3ncccc3C(F)F)cc21 [Compound 111, (S)—N-(1-(6-(3-(difluoromethyl)pyridin-2-yl)-5-fluoro-1-neopentyl-1H-indol-3-yl)-2,2-difluoroethyl)cyclopropanesulfonamide] | < 0.1
CC(C)(C)Cn1cc([C@H](NS(=O)(=O)N2CC(F)C2)C(F)F)c2cc(F)c(-c3ccccc3C(F)(F)F)cc21 [Compound 76, (S)—N-(2,2-difluoro-1-(5-fluoro-1-neopentyl-6-(2-(trifluoromethyl)phenyl)-1H-indol-3-yl)ethyl)-3-fluoroazetidine-1-sulfonamide] | < 0.1
CC(C)(C)Cn1cc([C@H](NS(=O)(=O)N2CCC2)C(F)F)c2cc(F)c(-c3ccccc3C(F)(F)F)cc21 [Compound 31, (S)—N-(2,2-difluoro-1-(5-fluoro-1-neopentyl-6-(2-(trifluoromethyl)phenyl)-1H-indol-3-yl)ethyl)azetidine-1-sulfonamide] | < 0.1
N#CC1CC(n2cc([C@H](NS(=O)(=O)C3CC3)C(F)F)c3cc(F)c(-c4cc(F)cnc4C(F)(F)F)cc32)C1 (stereo partly drawn) [Compound 151, (S)—N-(1-(1-(3-cyanocyclobutyl)-5-fluoro-6-(5-fluoro-2-(trifluoromethyl)pyridin-3-yl)-1H-indol-3-yl)-2,2-difluoroethyl)cyclopropanesulfonamide] | < 0.1
CC(C)(C)Cn1cc([C@H](NS(=O)(=O)C2CC2)C(F)F)c2ccc(-c3c(C(F)F)ccnc3C#N)cc21 [Compound 118, (S)—N-(1-(6-(2-cyano-4-(difluoromethyl)pyridin-3-yl)-1-neopentyl-1H-indol-3-yl)-2,2-difluoroethyl)cyclopropanesulfonamide] | < 0.1
Cc1ccncc1-c1cc2c(cc1F)c(C(C)NS(=O)(=O)C1CC1)cn2CC(C)(C)C (stereo not drawn) [Compound 71, N-(1-(5-fluoro-6-(4-methylpyridin-3-yl)-1-neopentyl-1H-indol-3-yl)ethyl)cyclopropanesulfonamide] | < 0.1
CC(C)(C)Cn1cc([C@H](NS(=O)(=O)C2CC2)C(F)F)c2cc(F)c(-c3c(C(F)(F)F)ccnc3C#N)cc21 [Compound 99, N-((1S)-1-(6-(2-cyano-4-(trifluoromethyl)pyridin-3-yl)-5-fluoro-1-neopentyl-1H-indol-3-yl)-2,2-difluoroethyl)cyclopropanesulfonamide] | < 0.1
CC(C)(C)Cn1cc([C@H](NS(=O)(=O)C2CC2)C(F)F)c2cc(F)c(C3=CCOCC3)cc21 [Compound 16, (S)—N-(1-(6-(3,6-dihydro-2H-pyran-4-yl)-5-fluoro-1-neopentyl-1H-indol-3-yl)-2,2-difluoroethyl)cyclopropanesulfonamide] | < 0.1
CC(C)(C)Cn1cc([C@H](NS(=O)(=O)C2CC(F)C2)C(F)F)c2ccc(-c3cccnc3C(F)(F)F)cc21 (stereo partly drawn) [Compound 46, (S)—N-(2,2-difluoro-1-(1-neopentyl-6-(2-(trifluoromethyl)pyridin-3-yl)-1H-indol-3-yl)ethyl)-3-fluorocyclobutane-1-sulfonamide] | < 0.1
CC(C)(C)Cn1cc([C@H](NS(=O)(=O)C2CC(F)C2)C(F)F)c2ccc(-c3ccccc3C(F)(F)F)cc21 (stereo partly drawn) [Compound 22, (S)—N-(2,2-difluoro-1-(1-neopentyl-6-(2-(trifluoromethyl)phenyl)-1H-indol-3-yl)ethyl)-3-fluorocyclobutane-1-sulfonamide] | < 0.1
CC(NS(=O)(=O)C1CC1)c1cn(CC(C)(C)C)c2cc(-c3cnccc3F)c(F)cc12 (stereo not drawn) [Compound 72, N-(1-(5-fluoro-6-(4-fluoropyridin-3-yl)-1-neopentyl-1H-indol-3-yl)ethyl)cyclopropanesulfonamide] | 0.1 to 1
CC(C)(C)Cn1cc([C@H](NS(=O)(=O)C2CC2)C(F)F)c2ccc(-c3ncccc3C#N)cc21 [Compound 40, (S)—N-(1-(6-(3-cyanopyridin-2-yl)-1-neopentyl-1H-indol-3-yl)-2,2-difluoroethyl)cyclopropanesulfonamide] | < 0.1
CC(C)(C)Cn1cc([C@H](NS(=O)(=O)C2CCC2)C(F)F)c2cc(F)c(-c3c(C(F)(F)F)ccnc3C#N)cc21 [Compound 135, N-((1S)-1-(6-(2-cyano-4-(trifluoromethyl)pyridin-3-yl)-5-fluoro-1-neopentyl-1H-indol-3-yl)-2,2-difluoroethyl)cyclobutanesulfonamide] | < 0.1
COc1cccc(C#N)c1-c1ccc2c([C@H](NS(=O)(=O)C3CC3)C(F)(F)F)cn(CC(C)(C)C)c2c1 [Compound 7, (S)—N-(1-(6-(2-cyano-6-methoxyphenyl)-1-neopentyl-1H-indol-3-yl)-2,2,2-trifluoroethyl)cyclopropanesulfonamide] | 0.1 to 1
CN(C)S(=O)(=O)N[C@@H](c1cn(CC(C)(C)C)c2cc(-c3ccccc3C(F)(F)F)ccc12)C(F)F [Compound 21] | < 0.1
CC(C)(C)Cn1cc([C@H](NS(=O)(=O)C2CC2)C(F)F)c2ccc(-c3ncc(F)cc3F)cc21 [Compound 84, (S)—N-(1-(6-(3,5-difluoropyridin-2-yl)-1-neopentyl-1H-indol-3-yl)-2,2-difluoroethyl)cyclopropanesulfonamide] | < 0.1
CC(C)(C)Cn1cc([C@H](NS(=O)(=O)C2CC2)C(F)F)c2ccc(-c3cc(F)cnc3C(F)F)cc21 [Compound 119, (S)—N-(1-(6-(2-(difluoromethyl)-5-fluoropyridin-3-yl)-1-neopentyl-1H-indol-3-yl)-2,2-difluoroethyl)cyclopropanesulfonamide] | < 0.1
CC(C)(C)Cn1cc([C@H](NS(=O)(=O)C2CC2)C(F)F)c2ccc(-c3cccnc3C(F)F)cc21 [Compound 87, (S)—N-(1-(6-(2-(difluoromethyl)pyridin-3-yl)-1-neopentyl-1H-indol-3-yl)-2,2-difluoroethyl)cyclopropanesulfonamide] | < 0.1
CC(NS(=O)(=O)C1CC1)c1cn(CC(C)(C)C)c2cc(-c3ncccc3C#N)c(F)cc12 (single isomer, unassigned) [Compound 19, (R or S)—N-(1-(6-(3-cyanopyridin-2-yl)-5-fluoro-1-neopentyl-1H-indol-3-yl)ethyl)cyclopropanesulfonamide] | < 0.1
O=S(=O)(N[C@@H](c1cn(C2CCC2)c2nc(-c3cc(F)cnc3C(F)(F)F)c(F)cc12)C(F)F)C1CC1 [Compound 150, (S)—N-(1-(1-cyclobutyl-5-fluoro-6-(5-fluoro-2-(trifluoromethyl)pyridin-3-yl)-1H-pyrrolo[2,3-b]pyridin-3-yl)-2,2-difluoroethyl)cyclopropanesulfonamide] | < 0.1
CC(C)(C)Cn1cc([C@H](NS(=O)(=O)C2CC2)C(F)F)c2ccc(-c3ncccc3C3CC3)cc21 [Compound 101, (S)—N-(1-(6-(3-cyclopropylpyridin-2-yl)-1-neopentyl-1H-indol-3-yl)-2,2-difluoroethyl)cyclopropanesulfonamide] | < 0.1
N#CC1CC(n2cc([C@H](NS(=O)(=O)C3CC3)C(F)F)c3cc(F)c(-c4ccc(F)cc4C(F)(F)F)cc32)C1 (stereo partly drawn) [Compound 179, (S)—N-(1-(1-(3-cyanocyclobutyl)-5-fluoro-6-(4-fluoro-2-(trifluoromethyl)phenyl)-1H-indol-3-yl)-2,2-difluoroethyl)cyclopropanesulfonamide] | < 0.1
O=S(=O)(N[C@@H](c1cn(C2CC(F)C2)c2cc(-c3ccc(F)cc3C(F)(F)F)c(F)cc12)C(F)F)C1CC1 (stereo partly drawn) [Compound 181, (S)—N-(2,2-difluoro-1-(5-fluoro-6-(4-fluoro-2-(trifluoromethyl)phenyl)-1-(3-fluorocyclobutyl)-1H-indol-3-yl)ethyl)cyclopropanesulfonamide] | < 0.1
Cc1cc(C(F)(F)F)c(-c2cc3c(cc2F)c([C@H](NS(=O)(=O)C2CC2)C(F)F)cn3CC(C)(C)C)cn1 [Compound 140, (S)—N-(2,2-difluoro-1-(5-fluoro-6-(6-methyl-4-(trifluoromethyl)pyridin-3-yl)-1-neopentyl-1H-indol-3-yl)ethyl)cyclopropanesulfonamide] | < 0.1
CC(C)(C)Cn1cc([C@H](NS(=O)(=O)C2CC2)C(F)F)c2ccc(C3CCOCC3)cc21 [Compound 174, (S)—N-(2,2-difluoro-1-(1-neopentyl-6-(tetrahydro-2H-pyran-4-yl)-1H-indol-3-yl)ethyl)cyclopropanesulfonamide] | < 0.1
